Laboratory results published in patent US20240018135A1, “COMPOUND HAVING INHIBITORY ACTIVITY AGAINST O-GLUSACASE AND USE THEREOF” (MEDIFRON DBT INC., priority 2020, published 2024).

Tests used:
[1] = target: Human OGA (recombinant hOGA protein) (Homo sapiens (Human), UniProt O60502); assay: Human OGA enzyme activity assay (fluorescence, 4-Methylumbelliferyl N-acetyl-β-D-glucosaminide substrate); type: biochemical; conditions: for IC50: Table 1; for % of inhibition: Table 1, test concentration not given
Chain of Human OGA (recombinant hOGA protein) (O60502 whole entry): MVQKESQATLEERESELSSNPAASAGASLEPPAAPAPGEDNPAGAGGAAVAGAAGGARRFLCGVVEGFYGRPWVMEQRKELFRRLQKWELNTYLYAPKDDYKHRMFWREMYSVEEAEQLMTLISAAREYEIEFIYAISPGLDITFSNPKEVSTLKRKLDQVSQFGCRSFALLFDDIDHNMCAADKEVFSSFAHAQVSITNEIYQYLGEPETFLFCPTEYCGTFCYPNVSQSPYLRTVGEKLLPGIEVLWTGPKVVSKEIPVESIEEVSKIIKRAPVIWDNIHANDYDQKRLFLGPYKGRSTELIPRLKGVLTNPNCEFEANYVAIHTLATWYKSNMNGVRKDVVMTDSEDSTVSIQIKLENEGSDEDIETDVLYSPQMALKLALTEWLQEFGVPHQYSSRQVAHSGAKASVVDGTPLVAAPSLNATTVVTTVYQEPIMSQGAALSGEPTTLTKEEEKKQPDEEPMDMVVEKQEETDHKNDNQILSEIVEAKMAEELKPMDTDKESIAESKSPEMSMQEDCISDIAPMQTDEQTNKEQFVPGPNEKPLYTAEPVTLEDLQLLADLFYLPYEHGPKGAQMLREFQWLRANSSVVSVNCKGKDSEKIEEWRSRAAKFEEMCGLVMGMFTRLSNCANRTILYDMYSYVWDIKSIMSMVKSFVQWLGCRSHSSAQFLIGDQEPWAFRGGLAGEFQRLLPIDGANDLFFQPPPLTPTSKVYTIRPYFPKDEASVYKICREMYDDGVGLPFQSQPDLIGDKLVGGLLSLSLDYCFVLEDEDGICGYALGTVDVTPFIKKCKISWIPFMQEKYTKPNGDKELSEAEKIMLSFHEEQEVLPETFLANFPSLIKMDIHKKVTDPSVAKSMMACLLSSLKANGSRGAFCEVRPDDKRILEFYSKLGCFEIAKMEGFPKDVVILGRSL

SMILES | melting point [°C] | IC50 [1] [nM] | % of inhibition [1] [%]
CC(=O)Nc1ncc(CN2CCN(CC(=O)Nc3ccc(F)cc3)CC2C)s1 (stereo not shown) [Compound A-33, 2-(4-((2-acetamidothiazol-5-yl)methyl)-3-methylpiperazin-1-yl)-N-(4-fluorophenyl)acetamide] | 102 to 105 | 230 | 97.9
CC(=O)Nc1ncc(CN2CCN(CC(=O)NC3CCCCC3)CC2C)s1 (stereo not shown) [Compound A-35, 2-(4-((2-acetamidothiazol-5-yl)methyl)-3-methylpiperazin-1-yl)-N-cyclohexylacetamide] | 184 to 187 | 100 | 98.4
CC(=O)Nc1ncc(CN2CCN(CC(=O)Nc3ccc(N4CCN(C(C)=O)CC4)cc3)CC2)s1 [Compound A-36, 2-(4-((2-acetamidothiazol-5 yl)methyl)piperazin-1-yl)-N-(4-(4-acetylpiperazin-1-yl)phenyl)acetamide] | 180 to 182 | 1040 | 96.2
CC(=O)Nc1ncc(CN2CCN(CC(=O)Nc3ccc(N4CCN(C(C)=O)CC4)cc3)CC2C)s1 (stereo not shown) [Compound A-37, 2-(4-((2-acetamidothiazol-5-yl)methyl)-3-methylpiperazin-1-yl)-N-(4-(4-acetylpiperazin-1-yl)phenyl)acetamide] | 232 | 70 | 98.4
CC(=O)Nc1ncc(CN2CCN(CC(=O)Nc3ccc(Cc4ccccc4)cc3)CC2)s1 [Compound A-38, 2-(4-((2-acetamidothiazol-5-yl)methyl)piperazin-1-yl)-N-(4-benzylphenyl)acetamide] | 132 to 134 | 370 | 90.8
CC(=O)Nc1ncc(CN2CCN(CC(=O)Nc3ccc(Cc4ccccc4)cc3)CC2C)s1 (stereo not shown) [Compound A-39, 2-(4-((2-acetamidothiazol-5-yl)methyl)-3-methylpiperazin-1-yl)-N-(4-benzylphenyl)acetamide] | 193 to 195 | 60 | 98.8
CC(=O)Nc1ncc(CN2CCN(CC(=O)NCc3ccc(-c4ccccc4)cc3)CC2)s1 [Compound A-40, N-([1,1′-biphenyl]-4-ylmethyl)-2-(4-((2-acetamidothiazol-5-yl)methyl)piperazin-1-yl)acetamide] | 167 to 170 | 210 | 97.7
CC(=O)Nc1ncc(CN2CCN(CC(=O)NCc3ccc(-c4ccccc4)cc3)CC2C)s1 (stereo not shown) [Compound A-41, N-([1,1′-biphenyl]-4-ylmethyl)-2-(4-((2-acetamidothiazol-5-yl)methyl)-3-methylpiperazin-1-yl)acetamide] | 215 to 216 | 30 | 99.6
CC(=O)Nc1ncc(CN2CCC(C(=O)Nc3ccccc3)CC2)s1 [Compound B-1, 1-((2-acetamidothiazol-5-yl)methyl)N-phenylpiperidine-4-carboxamide] | 172 to 174 | 870 | 87.0
CC(=O)Nc1ncc(CN2CCC(C(=O)Nc3ccc(Cl)cc3)CC2)s1 [Compound B-2, 1-((2-acetamidothiazol-5-yl)methyl)-N-(4-chlorophenyl)piperidine-4-carboxamide] | 258 to 260 | 270 | 91.0
CC(=O)Nc1ncc(CN2CCC(C(=O)Nc3ccc(C(C)C)cc3)CC2)s1 [Compound B-3, 1-((2-acetamidothiazol-5-yl)methyl)-N-(4-isopropylphenyl)piperidine-4-carboxamide] | 257 to 258 | 680 | 91.8
CC(=O)Nc1ncc(CN2CCC(C(=O)Nc3cnccn3)CC2)s1 [Compound B-4, 1-((2-acetamidothiazol-5-yl)methyl)-N-(pyrazin-2-yl)piperidine-4-carboxamide] | 178 to 180 | – | 66.9
CC(=O)Nc1ncc(CN2CCC(C(=O)NC3CCCCC3)CC2)s1 [Compound B-5, 1-((2-acetamidothiazol-5-yl)methyl)-N-cyclohexylpiperidine-4-carboxamide] | 231 to 232 | – | 46.7
CC(=O)Nc1ncc(CN2CCC(C(=O)Nc3ccc4ncccc4c3)CC2)s1 [Compound B-6, 1-((2-acetamidothiazol-5 yl)methyl)-N-(quinolin-6-yl)piperidine-4-carboxamide] | 234 to 236 | 320 | 91.4
CC(=O)Nc1ncc(CN2CCC(C(=O)NCc3ccccc3)CC2)s1 [Compound B-7, 1-((2-acetamidothiazol-5-yl)methyl)-N-benzylpiperidine-4-carboxamide] | 176 to 178 | 1000 | 88.2
COc1ccc(CNC(=O)C2CCN(Cc3cnc(NC(C)=O)s3)CC2)cc1 [Compound B-8, 1-((2-acetamidothiazol-5-yl)methyl)-N-(4-methoxybenzyl)piperidine-4-carboxamide] | 215 to 217 | 860 | 93.9
CC(=O)Nc1ncc(CN2CCC(C(=O)NC(C)c3ccc4c(c3)OCO4)CC2)s1 (stereo not shown) [Compound B-9, 1-((2-acetamidothiazol-5-yl)methyl)-N-(1-(benzo[d][1,3]dioxol-5-yl)ethyl)piperidine-4-carboxamide] | 211 to 213 | 1010 | 93.1
CC(=O)Nc1ncc(CN2CCC(C(=O)NC(C)c3ccccc3)CC2)s1 (stereo not shown) [Compound B-10, 1-((2-acetamidothiazol-5-yl)methyl)-N-(1-phenylethyl)piperidine-4-carboxamide] | 178 to 179 | 900 | 93.3
CC(=O)Nc1ncc(CN2CCC(C(=O)OC(C)c3ccc4c(c3)OCO4)CC2)s1 (stereo not shown) [Compound B-13, 1-(benzo[d][1,3]dioxol-5 yl)ethyl 1-((2-acetamidothiazol-5-yl)methyl)piperidine-4-carboxylate] | 215 to 217 | 60 | 98.9
CC(=O)Nc1ncc(CN2CCCC(C(=O)Nc3ccccc3)C2)s1 (stereo not shown) [Compound B-16, 1-((2-acetamidothiazol-5-yl)methyl)-N-phenylpiperidine-3-carboxamide] | 257 to 259 | 230 | 95.5
CC(=O)Nc1ncc(CN2CCCC(C(=O)Nc3ccc(F)cc3)C2)s1 (stereo not shown) [Compound B-17, 1-((2-acetamidothiazol-5-yl)methyl)-N-(4-fluorophenyl)piperidine-3-carboxamide] | 127 to 129 | 340 | 96.7
CC(=O)Nc1ncc(CN2CCCC(C(=O)Nc3ccc(C(C)C)cc3)C2)s1 (stereo not shown) [Compound B-18, 1-((2-acetamidothiazol-5-yl)methyl)-N-(4-isopropylphenyl)piperidine-3-carboxamide] | 234 to 236 | 240 | 96.4
CC(=O)Nc1ncc(CN2CCCC(C(=O)NC3CCCCC3)C2)s1 (stereo not shown) [Compound B-19, 1-((2-acetamidothiazol-5 yl)methyl)-N-cyclohexylpiperidine-3-carboxamide] | 265 to 267 | 450 | 97.6
